These results are taken from patent US10023557B2 (LifeSci Pharmaceuticals, Inc., priority 2015, dated 2018).

The target in one experiment is human plasma kallikrein (Homo sapiens (Human), UniProt P03952). The experiment in a line: In vitro enzyme inhibition of human plasma kallikrein (PFR-AMC cleavage). Type of experiment: biochemical. The conditions noted are these: Pro-Phe-Arg-AMC substrate, 37° C., read-out: hPK IC50. A digest of the protocol: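 Human plasma kallikrein and compound, diluted in 50 mM Tris-HCl pH 7.5, 150 mM NaCl, 0.01% Triton X-100, preincubated 5 min at 37 °C before PFR-AMC was added.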
Chain of human plasma kallikrein (P03952 391-638): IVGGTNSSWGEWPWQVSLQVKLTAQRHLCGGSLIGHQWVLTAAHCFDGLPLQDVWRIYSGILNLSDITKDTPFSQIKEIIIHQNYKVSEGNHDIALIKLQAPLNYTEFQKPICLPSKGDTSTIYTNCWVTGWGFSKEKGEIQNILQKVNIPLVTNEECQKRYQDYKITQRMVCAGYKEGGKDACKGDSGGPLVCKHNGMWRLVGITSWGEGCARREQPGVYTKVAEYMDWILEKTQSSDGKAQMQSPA
Chain of human plasma kallikrein (P03952 20-390 partner): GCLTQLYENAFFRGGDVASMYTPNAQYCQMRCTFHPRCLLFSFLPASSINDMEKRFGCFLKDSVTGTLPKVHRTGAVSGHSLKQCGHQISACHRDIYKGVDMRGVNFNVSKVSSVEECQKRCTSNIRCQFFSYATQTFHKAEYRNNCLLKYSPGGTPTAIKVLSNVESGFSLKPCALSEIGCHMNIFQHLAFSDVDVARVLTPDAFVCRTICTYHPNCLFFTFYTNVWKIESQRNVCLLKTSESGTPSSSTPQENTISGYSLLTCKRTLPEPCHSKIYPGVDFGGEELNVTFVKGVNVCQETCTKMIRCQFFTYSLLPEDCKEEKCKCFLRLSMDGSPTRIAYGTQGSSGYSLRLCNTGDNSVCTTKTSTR

Experiment [1] addresses cellular kallikrein activity (Homo sapiens (Human), UniProt P03952). Briefly: In vitro cellular assay (contact assay): kallikrein activity in ellagic acid-activated human plasma, Z-FR-2-AMC substrate. The following applies: human plasma activated with ellagic acid, 37° C. The experiment is classed as biochemical.

pEC50, pIC50: −log10 of the molar value.

Chain of cellular kallikrein activity (P03952 391-638): as the sequence (P03952 391-638) above
Chain of cellular kallikrein activity (P03952 20-390 partner): as the sequence (P03952 20-390 partner) above

A word on the pIC50: it is the negative decadic logarithm of the IC50, by convention in mol/L. As usually defined, the pEC50 is the negative decadic logarithm of the EC50, by convention in mol/L. A lower pEC50 goes with a large EC50. On to `O=C(NCc1cc2c(Cl)c[nH]c2cc1F)c1ccnc(Cc2ccc3ncc(C4CC4)cc3c2)c1` [Example 245, N-((3-chloro-6-fluoro-1H-indol-5-yl)methyl)-2-((3-cyclopropylquinolin-6-yl)methyl)isonicotinamide], for which the negative logarithm of the IC50 (pIC50) on human plasma kallikrein was above 7.00. In experiment [1], the pEC50 was 6.00 to 7.00.

As to `O=C(NCc1cnc2[nH]cc(Cl)c2c1)c1ccnc(Cc2ccc3ncc(C4CC4)cc3c2)c1` [Example 246, N-((3-chloro-1H-pyrrolo[2,3-b]pyridin-5-yl)methyl)-2-((3-cyclopropylquinolin-6-yl)methyl)isonicotinamide], on human plasma kallikrein, the negative-log IC50 (pIC50) is above 7.00. The pEC50 in experiment [1] is 6.00 to 7.00.

For `Nc1nccc2cc(CNC(=O)c3ccnc(Cc4ccc5ncc(C6CC6)cc5c4)c3)ccc12` [Example 247, N-((1-aminoisoquinolin-6-yl)methyl)-2-((3-cyclopropylquinolin-6-yl)methyl)isonicotinamide], the negative logarithm of the IC50 (pIC50) on human plasma kallikrein is above 7.00. The molecule further showed a negative logarithm of the EC50 (pEC50) in experiment [1] above 7.00.

`O=C(NCc1ccc2[nH]cc(Cl)c2c1F)c1ccnc(Cc2ccc3ncc(C4CC4)cc3c2)c1` [Example 248, N-((3-chloro-4-fluoro-1H-indol-5-yl)methyl)-2-((3-cyclopropylquinolin-6-yl)methyl)isonicotinamide]: the pIC50 at human plasma kallikrein is above 7.00. The molecule further had a pEC50 in experiment [1] of 6.00 to 7.00.

As for `O=C(NCc1n[nH]c2ccc(Cl)cc12)c1ccnc(Cc2ccc3ncc(C4CC4)cc3c2)c1` [Example 249, N-((5-chloro-1H-indazol-3-yl)methyl)-2-((3-cyclopropylquinolin-6-yl)methyl)isonicotinamide], on human plasma kallikrein, the pIC50 is above 7.00. Further, the pEC50 in experiment [1] was 6.00 to 7.00.

Turning to `Cc1nc(N)ccc1CNC(=O)c1ccnc(Cc2cc(CN)c3ncc(Cl)cc3c2)c1` [Example 253, N-((6-amino-2-methylpyridin-3-yl)methyl)-2-((8-(aminomethyl)-3-chloroquinolin-6-yl)methyl)isonicotinamide], the pIC50 on human plasma kallikrein was above 7.00. The molecule also gave a negative-log EC50 (pEC50) in experiment [1] above 7.00.

For `Cc1cc(N)nc(C)c1CNC(=O)c1ccnc(Cc2ccc3ncc(C(C)C)cc3c2)c1` [Example 254, N-((6-amino-2,4-dimethylpyridin-3-yl)methyl)-2-((3-isopropylquinolin-6-yl)methyl)isonicotinamide], the pIC50 at human plasma kallikrein was above 7.00. In addition, in experiment [1], the pEC50 was above 7.00.

In the case of `CCCc1cnc2ccc(Cc3cc(C(=O)NCc4c(C)cc(N)nc4C)ccn3)cc2c1` [Example 255, N-((6-amino-2,4-dimethylpyridin-3-yl)methyl)-2-((3-propylquinolin-6-yl)methyl)isonicotinamide], the negative logarithm of the IC50 (pIC50) on human plasma kallikrein is above 7.00. The molecule also gave a negative-log EC50 (pEC50) in experiment [1] above 7.00.

With `COc1cnc2ccc(Cc3cc(C(=O)NCc4c(C)cc(N)nc4C)ccn3)cc2c1` [Example 264, N-((6-amino-2,4-dimethylpyridin-3-yl)methyl)-2-((3-methoxyquinolin-6-yl)methyl)isonicotinamide], at human plasma kallikrein, the pIC50 was above 7.00. Also, the negative logarithm of the EC50 (pEC50) in experiment [1] is above 7.00.

As to `Cc1cc(N)nc(C)c1CNC(=O)c1ccnc(Cc2cc(-c3nnn[nH]3)c3ncc(Cl)cc3c2)c1` [Example 272, N-((6-amino-2,4-dimethylpyridin-3-yl)methyl)-2-((3-chloro-8-(1H-tetrazol-5-yl)quinolin-6-yl)methyl)isonicotinamide], the pIC50 on human plasma kallikrein is above 7.00. Further, the pEC50 in experiment [1] is 6.00 to 7.00.

`Cc1cc(N)nc(C)c1CNC(=O)c1ccnc(C(O)c2ccc3ncc(Cl)cc3c2)c1` (stereo not drawn) [Example 275, N-((6-amino-2,4-dimethylpyridin-3-yl)methyl)-2-((3-chloroquinolin-6-yl)(hydroxy)methyl)isonicotinamide]: the negative-log IC50 (pIC50) on human plasma kallikrein is above 7.00. Moreover, in experiment [1], the pEC50 was 6.00 to 7.00.

As to `Cc1cc(N)nc(C)c1CNC(=O)c1ccnc(C(N)c2ccc3ncc(Cl)cc3c2)c1` (stereo not drawn) [Example 276, 2-[Amino-(3-chloro-quinolin-6-yl)-methyl]-N-(6-amino-2,4-dimethyl-pyridin-3-ylmethyl)-isonicotinamide], the negative logarithm of the IC50 (pIC50) on human plasma kallikrein was above 7.00. This molecule also had a pEC50 in experiment [1] of 6.00 to 7.00.

For `Cc1cc(N)nc(C)c1CNC(=O)c1ccnc(C(C)(O)c2ccc3ncc(Cl)cc3c2)c1` (stereo not drawn) [Example 277, N-((6-amino-2,4-dimethylpyridin-3-yl)methyl)-2-(1-(3-chloroquinolin-6-yl)-1-hydroxyethyl)isonicotinamide], at human plasma kallikrein, the pIC50 was 6.00 to 7.00. For the same molecule, in experiment [1], the negative logarithm of the EC50 (pEC50) is 6.00 to 7.00.

Turning to `Cc1nc(N)ccc1CNC(=O)c1ccnc(Cc2ccc3ncc(CC(F)F)cc3c2)c1` [Example 279, N-((6-amino-2-methylpyridin-3-yl)methyl)-2-((3-(2,2-difluoroethyl)quinolin-6-yl)methyl)isonicotinamide], on human plasma kallikrein, the negative-log IC50 (pIC50) is above 7.00. Besides, the negative-log EC50 (pEC50) in experiment [1] is 6.00 to 7.00.

Take `CCc1cnc2ccc(Cc3cc(C(=O)NCc4ccc5c(N)nccc5c4)ccn3)cc2c1` [Example 283, N-((1-aminoisoquinolin-6-yl)methyl)-2-((3-ethylquinolin-6-yl)methyl)isonicotinamide]: the pIC50 at human plasma kallikrein was above 7.00. The same molecule gave a pEC50 in experiment [1] above 7.00.

As for `CCc1cnc2ccc(Cc3cc(C(=O)NCc4c(C)cc(N)nc4C)ccn3)cc2c1` [Example 286, N-((6-amino-2,4-dimethylpyridin-3-yl)methyl)-2-((3-ethylquinolin-6-yl)methyl)isonicotinamide], the pIC50 on human plasma kallikrein was above 7.00. The molecule further showed a pEC50 in experiment [1] above 7.00.

As for `Cc1cnc2c(S(N)(=O)=O)cc(Cc3cc(C(=O)NCc4cc5c(Cl)c[nH]c5cc4F)ccn3)cc2c1` [Example 287, N-((3-chloro-6-fluoro-1H-indol-5-yl)methyl)-2-((3-methyl-8-sulfamoylquinolin-6-yl)methyl)isonicotinamide], the pIC50 at human plasma kallikrein is above 7.00. In addition, in experiment [1], the pEC50 is above 7.00.

For the molecule `Cc1cnc2c(S(N)(=O)=O)cc(Cc3cc(C(=O)NCc4n[nH]c5ccc(Cl)cc45)ccn3)cc2c1` [Example 288, N-((5-chloro-1H-indazol-3-yl)methyl)-2-((3-methyl-8-sulfamoylquinolin-6-yl)methyl)isonicotinamide], at human plasma kallikrein, the pIC50 was above 7.00. This molecule also had a pEC50 in experiment [1] of 6.00 to 7.00.

`Cc1cnc2c(S(N)(=O)=O)cc(Cc3cc(C(=O)NCc4ccc5c(N)nccc5c4)ccn3)cc2c1` [Example 289, N-((1-aminoisoquinolin-6-yl)methyl)-2-((3-methyl-8-sulfamoylquinolin-6-yl)methyl)isonicotinamide]: the negative-log IC50 (pIC50) at human plasma kallikrein was above 7.00. The molecule also had a pEC50 in experiment [1] above 7.00.

For the molecule `Cc1cnc2c(S(N)(=O)=O)cc(Cc3cc(C(=O)NCc4ccc5[nH]cc(Cl)c5c4F)ccn3)cc2c1` [Example 290, N-((3-chloro-4-fluoro-1H-indol-5-yl)methyl)-2-((3-methyl-8-sulfamoylquinolin-6-yl)methyl)isonicotinamide], the negative-log IC50 (pIC50) at human plasma kallikrein is above 7.00. In experiment [1], this molecule gave a pEC50 of 6.00 to 7.00.

On to `Cc1cnc2c(S(N)(=O)=O)cc(Cc3cc(C(=O)NCc4cnc5[nH]cc(Cl)c5c4)ccn3)cc2c1` [Example 291, N-((3-chloro-1H-pyrrolo[2,3-b]pyridin-5-yl)methyl)-2-((3-methyl-8-sulfamoylquinolin-6-yl)methyl)isonicotinamide], for which the negative logarithm of the IC50 (pIC50) on human plasma kallikrein was above 7.00. Besides, the negative-log EC50 (pEC50) in experiment [1] was above 7.00.
